Results from article PMC4510133 (PLoS ONE, 2015).
Values joined by “and” are separate entries in the source; they are usually repeats but may differ in a detail not shown here. Equal values may be shown once. Read-outs that look alike come from different tables or passages of the source.

Key:
spinach Rubisco [1] = target: T1, spinach Rubisco (Spinacia oleracea, UniProt P00875); test: Radiolabelled [3H]-(±)-ABA binding assay (saturation and competition); parameters: Commercially available Rubisco from spinach (Sigma-Aldrich); catalogue # R8000; purchased Sigma-Aldrich R8000; conditions: 25 nM [3H]-(±)-ABA
Description: A fresh aliquot of this Rubisco was subsequently dissolved in binding buffer (50 mM bicine, 15 mM MgCl2, 20 mM NaCl, pH 7.9) and placed on ice. The total volume for each assay sample was 30 μL. Protein solution (30 μg protein) was mixed with [^3H]-(±)-ABA (specific activity 37 Ci mmol^-1 radiolabelled: non-radiolabelled ratio 1.8:1) at the indicated concentrations in the presence and absence of 500 μM (+)-ABA, incubated at RT for 30 minutes. Samples (15 μL) from each reaction were transferred into SPN columns (G-biosciences), to which 100 μL of cold OrgoSol^TM buffer (chilled at -20°C) was added. The columns were spun at 10,000 x g for 10 s and the wash repeated once. The matrix of each SPN column was then removed and placed in scintillation vials containing Aqasol^TM scintillation fluid and soaked for at least 24 hours prior to counting radioactivity using a Beckman Coulter Multi-Purpose Scintillation Counter. Control samples not containing the protein, but treated with [^3H]-(±)-ABA, were also prepared and values subtracted from experimental samples. Signal corresponding to specific [^3H]-(±)-ABA binding was calculated from the difference between samples with [^3H]-(±)-ABA and those containing 1000-fold excess of non-radiolabelled (+)-ABA. Each sample was replicated 5–10 times and readings averaged. Competition was performed as described above, with the concentration of [^3H]-(±)-ABA at 25 nM in all samples, and non-radiolabeled (+)-ABA added at the indicated concentrations. The same procedure was applied using non-radiolabeled (-)-ABA, PA (phaseic acid), and trans-ABA. Values obtained for the same experiment washed with a 10,000 fold excess of unlabelled (±)-ABA were subtracted to account for any non-specific binding.

non-activated Rubisco [2] = target: non-activated Rubisco; parameters: method as in earlier work; conditions: 1 unit / mg ref 49, read-out: Kd by ITC; cited from earlier work
non-activated Rubisco [3] = target: non-activated Rubisco; parameters: method as in PMID 6417133; conditions: non-activated Rubisco ref 13; read-out: KD, radiolabelled binding assay; cited from earlier work
spinach Rubisco [4] = target: T1, spinach Rubisco; test: Isothermal titration calorimetry; conditions: for stoichiometry (n) by ITC: 20°C, Independent binding model
activated Rubisco = conditions: read-out: Km, activated Rubisco-RuBP complex; activated Rubisco ref 13; cited from earlier work
ABA-receptor (PYL5) = conditions: PYL5 ref 48; read-out: Kd by ITC; cited from earlier work
spinach Rubisco [5] = target: T1, spinach Rubisco; test: Rubisco activation (carbamylation), initial rate analysis with non-activated enzyme; assay type: biochemical; parameters: Commercially available Rubisco from spinach (Sigma-Aldrich); catalogue # R8000; purchased Sigma-Aldrich R8000
Description: Commercially available Rubisco from spinach (Sigma-Aldrich; catalogue # R8000; S1 Fig; specific activity 0.05 units / mg) was dissolved in a buffer containing 15 mM MgCl2 and 25 mM NaHCO3 at pH 8.0 for activation. Each assay (total volume, 1.0 mL) contained 50 mM Bicine (pH 8.0), 15 mM MgCl2, 10 mM NaCl, 5 mm DTT, 5 mM phosphocreatine, 5 mM ATP, 5 mM phosphoenolpyruvate, and 25 mM NaHCO3. This mixture was prepared before each set of experiments. Five minutes before initiating the reaction with the addition of activated Rubisco, the following were added: RuBP at the indicated concentrations), 0.4 mM NADH, 20 units mL-^-1 of glyceraldehyde-3-phosphate dehydrogenase, 20 units mL-^-1 of 3-phosphoglycerate kinase, and 2 units mL^-1 of creatine phosphokinase. Following the addition of activated Rubisco to a final concentration of 0.3 mg mL^-1, the NADH concentration was measured spectrophotometrically (λ = 340 nm) at 5 s intervals for 5 min. Absorbance values were converted to NADH concentrations using an extinction coefficient of 6.22 mM^-1. Reaction rates were evaluated from the slope of absorbance vs. time curves and plotted against concentration of RuBP. […] The non-activated Rubisco was then pre-incubated on ice for at least 10 minutes with or without the indicated concentrations of (+)-ABA, and the reactions initiated and monitored as described above. […]

For `CC1=CC(=O)CC(C)(C)[C@]1(O)/C=C/C(C)=C\C(=O)O` [(-)-ABA], which “Competition: displacement of [3H]-(±)-ABA by non-radiolabeled compound” value (“Competition … by non-radiolabeled compound” for short) (spinach Rubisco [1]) is on record?
Its value is “equally effective as competitors”.

For `CC1=CC(=O)CC(C)(C)[C@@]1(O)/C=C/C(C)=C/C(=O)O` [trans-(+)-ABA], which “Competition … by non-radiolabeled compound” value (spinach Rubisco [1]) is on record?
Its value is “ineffective as competitors”.

Which Kd (non-activated Rubisco [2]) does the source give for `O=C(COP(=O)(O)O)[C@H](O)[C@H](O)COP(=O)(O)O` [RuBP, ribulose-1,5-bisphosphate] here?
The Kd was 0.3 µM.

What about the Kd (non-activated Rubisco [3]) of the same compound?
The Kd was 0.021 µM.

And the Kd (spinach Rubisco [4])?
Its Kd is 31.4 µM.

And the “stoichiometry (n) by ITC” value (spinach Rubisco [4])?
Its value is 2.5.

And the Km (activated Rubisco)?
The Km was 21 µM.

With `CC(=C/C(=O)O)/C=C/[C@]1(O)[C@@]2(C)CO[C@]1(C)CC(=O)C2` [PA, phaseic acid] as the compound, how does the “Competition … by non-radiolabeled compound” value (spinach Rubisco [1]) read?
Its value is “ineffective as competitors”.

Which Kd (ABA-receptor (PYL5)) does the source give for Abscisic acid [(+)-ABA] here?
Its Kd is 1.2 µM.

And the “effect on initial rate (activation)” value (spinach Rubisco [5]; 100-250 μM (+)-ABA, 7 mM NaHCO3, S3 Fig, no effect on equilibrium rate (catalysis))?
The value was “inhibitory effect”.

And the “potency on Rubisco activation versus Rubisco catalysis” value (spinach Rubisco [5]; ratio of Ki values)?
The value was “more than 10 fold”.

What about the “stoichiometry (n) by ITC” value (spinach Rubisco [4]) of the same compound?
Its value is 19.9 and 19.

And the “Competition … by non-radiolabeled compound” value (spinach Rubisco [1])?
Its value is “equally effective as competitors”.
